Assay results as given in publication doi:10.1101/530550v1 (biorxiv, 2019).

Tested on: 2,5DHP dioxygenase (PicD)
Assay: spectrophotometric […],5DHP disappearance at […] nm
Type: biochemical, Alcaligenes faecalis
Conditions: 1 mM Fe2+; 50 mM PBS pH 7.0; 25 °C

Km: 65.7 ± 6.27 µM
SMILES: Oc1ccc(O)nc1 [2,5DHP, 2,5-dihydroxypyridine]
